Measurements published in ChEMBL document CHEMBL1158005, “New 12a-hydroxyrotenoids from gliricidia sepium bark” (J Nat Prod, 1999).
Converted amounts (≈) assume the structure as drawn.

Test: Toxicity in Artemia salina larvae after 24 hrs
Format: organism-based
Settings: in vivo

| Structure (SMILES) | LC50 at 24 h [µg/mL] |
| --- | --- |
| COc1cc2c(cc1OC)[C@]1(O)C(=O)c3ccc(O)cc3O[C@@H]1CO2 | 284 (≈ 826 µM) |
| COc1ccc2c(c1)OC[C@H]1Oc3cc(O)ccc3C(c3cc([C@@H]4COc5cc(O)ccc5C4)ccc3OC)[C@@]21O (stereo partly drawn) [GLIRICIDIN] | 244 (≈ 439 µM) |
| COc1ccc2c(c1)OC[C@H]1Oc3cc(O)ccc3C(=O)[C@@]21O [GLIRICIDOL] | 50.7 (≈ 161 µM) |
